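Following 48 hours of exposure in 96-well plates, responses at five concentrations were used to interpolate endpoints linearly. GI50: concentration for 50% inhibition of growth. TGI is the concentration that stops growth completely.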 Calls of active or inactive are those of the source. No stated cut-off is given here; in the data, active means GI50 below about 0.43 µM; inactive means the rest.
What was measured:
Assay in all cases: NCI anticancer screen, dose series, 48 h
HT29 colon = tested on: HT29 colon
IGROV1 ovarian = tested on: IGROV1 ovarian
MCF7 breast = tested on: MCF7 breast
MOLT-4 leukemia = tested on: MOLT-4 leukemia
NCI/ADR-RES ovarian = tested on: NCI/ADR-RES ovarian
SF-539 CNS = tested on: SF-539 CNS
SK-MEL-5 melanoma = tested on: SK-MEL-5 melanoma
SK-OV-3 ovarian = tested on: SK-OV-3 ovarian
UACC-257 melanoma = tested on: UACC-257 melanoma

Cc1ccc(C#CS(=O)(=O)C(F)(F)F)cc1
TGI (HT29 colon): > 100 µM | TGI (IGROV1 ovarian): > 100 µM | TGI (MCF7 breast): > 100 µM | TGI (MOLT-4 leukemia): > 100 µM | TGI (NCI/ADR-RES ovarian): > 100 µM | TGI (SF-539 CNS): > 100 µM | TGI (SK-MEL-5 melanoma): > 100 µM | TGI (SK-OV-3 ovarian): > 100 µM | TGI (UACC-257 melanoma): > 100 µM

COc1cc(-c2nc3cc(Cl)c(Cl)cc3[nH]2)ccc1OCC(=O)N=Nc1c(O)[nH]c2ccc(Cl)cc12
GI50 (MOLT-4 leukemia): 0.321 µM | TGI (MOLT-4 leukemia): 1.59 µM | GI50 (NCI/ADR-RES ovarian): > 100 µM | TGI (NCI/ADR-RES ovarian): > 100 µM | GI50 (SK-OV-3 ovarian): 1.83 µM | TGI (SK-OV-3 ovarian): 4.57 µM

N#Cc1ccc(C2Oc3ccc(Cl)cc3C=C2[N+](=O)[O-])cc1 (configuration not stated)
TGI (HT29 colon): 7.89 µM | TGI (IGROV1 ovarian): 3.11 µM | TGI (MCF7 breast): 3.14 µM | TGI (MOLT-4 leukemia): 4.24 µM | TGI (NCI/ADR-RES ovarian): > 100 µM | TGI (SF-539 CNS): 3.84 µM | TGI (SK-MEL-5 melanoma): 2.68 µM | TGI (SK-OV-3 ovarian): 5.57 µM | TGI (UACC-257 melanoma): 6.75 µM

O=Cc1c(Br)[nH]c2ccccc12
TGI (HT29 colon): > 100 µM | TGI (IGROV1 ovarian): > 100 µM | TGI (MCF7 breast): > 100 µM | TGI (MOLT-4 leukemia): > 72.6 µM | TGI (NCI/ADR-RES ovarian): > 100 µM | TGI (SF-539 CNS): > 100 µM | TGI (SK-MEL-5 melanoma): > 100 µM | TGI (SK-OV-3 ovarian): > 100 µM | TGI (UACC-257 melanoma): 77.7 µM

Cc1cc2oc3c(ccc(=O)n3C)c(=O)c2c(C)c1Cl
TGI (HT29 colon): > 100 µM | TGI (IGROV1 ovarian): > 100 µM | TGI (NCI/ADR-RES ovarian): > 100 µM | TGI (SF-539 CNS): 74.6 µM | TGI (SK-MEL-5 melanoma): > 100 µM | TGI (SK-OV-3 ovarian): > 100 µM

O=NN1C(c2ccccc2)CCCC1c1ccccc1 (configuration not stated)
TGI (HT29 colon): > 54.8 µM | TGI (IGROV1 ovarian): > 100 µM | TGI (MCF7 breast): > 100 µM | TGI (MOLT-4 leukemia): > 100 µM | TGI (NCI/ADR-RES ovarian): > 100 µM | TGI (SF-539 CNS): > 100 µM | TGI (SK-MEL-5 melanoma): > 100 µM | TGI (SK-OV-3 ovarian): > 82.3 µM | TGI (UACC-257 melanoma): > 100 µM

CCCCOc1ccc2c(c1)CC[C@@H]1[C@@H]2CC[C@]2(C)C(=O)N(CCCC)C(=O)C[C@@H]12
TGI (HT29 colon): > 100 µM | TGI (IGROV1 ovarian): > 100 µM | TGI (MCF7 breast): > 100 µM | TGI (MOLT-4 leukemia): > 100 µM | TGI (NCI/ADR-RES ovarian): > 100 µM | TGI (SK-MEL-5 melanoma): > 100 µM | TGI (SK-OV-3 ovarian): > 100 µM

CCOC(=O)C1=C(c2ccccc2)C12N(Cc1ccccc1)C(=O)C2(c1ccccc1)c1ccccc1 (configuration not stated)
TGI (HT29 colon): > 100 µM | TGI (IGROV1 ovarian): > 100 µM | TGI (MCF7 breast): > 100 µM | TGI (MOLT-4 leukemia): > 100 µM | TGI (SF-539 CNS): > 100 µM | TGI (SK-OV-3 ovarian): > 100 µM | TGI (UACC-257 melanoma): > 100 µM

O=C1c2cc3c(cc2CC1Cc1ccc2c(c1)CCC2)CCC3 (configuration not stated)
TGI (HT29 colon): > 100 µM | TGI (IGROV1 ovarian): > 100 µM | TGI (MCF7 breast): > 100 µM | TGI (MOLT-4 leukemia): > 100 µM | TGI (NCI/ADR-RES ovarian): > 100 µM | TGI (SF-539 CNS): > 100 µM | TGI (SK-MEL-5 melanoma): > 100 µM | TGI (SK-OV-3 ovarian): > 100 µM | TGI (UACC-257 melanoma): > 100 µM

O=C(c1ccccc1O)c1cc(-c2ncc3c(=O)c4ccccc4oc3n2)c(-c2ccccc2O)[nH]c1=O
TGI (HT29 colon): 77.6 µM | TGI (IGROV1 ovarian): > 70.1 µM | TGI (MCF7 breast): 34.2 µM | TGI (MOLT-4 leukemia): 61.9 µM | TGI (NCI/ADR-RES ovarian): > 87.6 µM | TGI (SF-539 CNS): 20.4 µM | TGI (SK-MEL-5 melanoma): 25.8 µM | TGI (SK-OV-3 ovarian): 85.2 µM | TGI (UACC-257 melanoma): 47.1 µM

O=P(O)(O)CN1CCNCCN(CP(=O)(O)O)CCN(CP(=O)(O)O)CCNCC1
GI50 (HT29 colon): 49000 µM | GI50 (MCF7 breast): 99900 µM | outcome (MOLT-4 leukemia): inactive | outcome (NCI/ADR-RES ovarian): inactive | outcome (SF-539 CNS): inactive | outcome (SK-OV-3 ovarian): inactive | outcome (UACC-257 melanoma): inactive

From PubChem BioAssay (NCI)
